Source: ChEMBL document CHEMBL1773045, “Conjugate (MTC-220) of muramyl dipeptide analogue and paclitaxel prevents both tumor growth and metastasis in mice” (J Med Chem, 2011)
The source made the active and inactive calls. The rule behind the calls is not given here.

Assays:
[1] = system: T47D; assay: Growth inhibition of human T47D cells after 48 hrs by sulforhodamine B assay; assay type: functional
[2] = system: MDA-MB-231; assay: Antitumor activity against human MDA-MB-231 cells xenografted in nu/nu BALB/c mouse assessed as tumor growth inhibition at 10 mg/kg, ip qd for 24 days measured on day 25 relative to control; assay type: functional; settings: MDA-MB-231, ip, route intraperitoneal, read-out: GI
[3] = system: MDA-MB-231; assay: Antitumor activity against human MDA-MB-231 cells xenografted in nu/nu BALB/c mouse assessed as tumor growth inhibition at 20 mg/kg, ip qd for 24 days measured on day 25 relative to control; assay type: functional; settings: MDA-MB-231, ip, route intraperitoneal, read-out: GI
[4] = system: NCI-H460; assay: Antitumor activity against human H460 cells xenografted in nu/nu BALB/c mouse assessed as tumor growth inhibition at 20 mg/kg, ip qd for 24 days measured on day 25 relative to control; assay type: functional; settings: route intraperitoneal, read-out: GI
[5] = system: A549; assay: Antitumor activity against human A549 cells xenografted in nu/nu BALB/c mouse assessed as tumor growth inhibition at 30 mg/kg, ip qd for 12 days measured on day 25 relative to control; assay type: functional; settings: route intraperitoneal, read-out: GI
[6] = system: Mus musculus; assay: Toxicity in human cancer cells xenografted in nu/nu BALB/c mouse assessed as mortality at 5 to 30 mg/kg, ip qd for 24 days; assay type: organism-based, Cancer cell lines; set-up: dose 5-30 mg/kg, route intraperitoneal; settings: in vivo, 576 h
[7] = system: Mus musculus; assay: Toxicity in human cancer cells xenografted in nu/nu BALB/c mouse assessed as body weight loss at 5 to 30 mg/kg, ip qd for 24 days; assay type: organism-based, Cancer cell lines; set-up: dose 5-30 mg/kg, route intraperitoneal; settings: in vivo, 576 h
[8] = system: Lewis lung carcinoma cell line; assay: Antitumor activity against mouse LLC cells xenografted in C57BL/6 mouse assessed as tumor growth inhibition at 10 mg/kg, ip qd for 15 days relative to control; assay type: functional; settings: 360 h, route intraperitoneal, read-out: GI
[9] = system: Mus musculus; assay: Toxicity in mouse 4T1 cells xenografted […] mouse assessed as decrease in body weight at 2.5 to 10 mg/kg, ip qd for 28 days; assay type: organism-based; set-up: dose 2.5-10 mg/kg, route intraperitoneal; settings: in vivo, 672 h
[10] = system: Mus musculus; assay: Antimetastatic activity against mouse 4T1 cells xenografted in BALB/c mouse assessed as reduction of CCL2 mRNA expression in tumor at 5 mg/kg, ip qd for 23 days by RT-PCR analysis; assay type: functional, organism-based; set-up: dose 5 mg/kg
[11] = system: HeLa; assay: Cytotoxicity against human HeLa cells after 72 hrs by MTT assay; assay type: functional, cell-based
[12] = system: A-431; assay: Cytotoxicity against human A431 cells after 72 hrs by MTT assay; assay type: functional, cell-based
[13] = system: KB; assay: Cytotoxicity against human KB cells after 72 hrs by MTT assay; assay type: functional, cell-based
[14] = system: KETR3; assay: Cytotoxicity against human Ketr3 cells after 72 hrs by MTT assay; assay type: functional, cell-based
[15] = system: BGC-823; assay: Cytotoxicity against human BGC823 cells after 72 hrs by MTT assay; assay type: functional, cell-based
[16] = system: K562; assay: Growth inhibition of human K562 cells after 48 hrs by sulforhodamine B assay; assay type: functional; settings: K562, 48 h
[17] = system: MOLT-4; assay: Growth inhibition of human MOLT4 cells after 48 hrs by sulforhodamine B assay; assay type: functional; settings: MOLT-4, 48 h
[18] = Growth inhibition of human […] cells after 48 hrs by sulforhodamine B assay; assay type: functional
[19] = system: A549; assay: Growth inhibition of human A549 cells after 48 hrs by sulforhodamine B assay; assay type: functional; settings: A549, 48 h
[20] = system: NCI-H226; assay: Growth inhibition of human NCI-H226 cells after 48 hrs by sulforhodamine B assay; assay type: functional; settings: NCI-H226, 48 h
[21] = system: NCI-H322M; assay: Growth inhibition of human NCI-H322M cells after 48 hrs by sulforhodamine B assay; assay type: functional
[22] = system: NCI-H460; assay: Growth inhibition of human NCI-H460 cells after 48 hrs by sulforhodamine B assay; assay type: functional; settings: NCI-H460, 48 h
[23] = system: NCI-H522; assay: Growth inhibition of human NCI-H522 cells after 48 hrs by sulforhodamine B assay; assay type: functional; settings: NCI-H522, 48 h
[24] = system: COLO 205; assay: Growth inhibition of human COLO205 cells after 48 hrs by sulforhodamine B assay; assay type: functional; settings: COLO 205, 48 h
[25] = system: HCC 2998; assay: Growth inhibition of human HCC2998 cells after 48 hrs by sulforhodamine B assay; assay type: functional; settings: HCC 2998, 48 h
[26] = system: SW-620; assay: Growth inhibition of human SW620 cells after 48 hrs by sulforhodamine B assay; assay type: functional; settings: SW-620, 48 h
[27] = system: SF-268; assay: Growth inhibition of human SF268 cells after 48 hrs by sulforhodamine B assay; assay type: functional; settings: SF-268, 48 h
[28] = system: SF-295; assay: Growth inhibition of human SF295 cells after 48 hrs by sulforhodamine B assay; assay type: functional; settings: SF-295, 48 h
[29] = system: SF-539; assay: Growth inhibition of human SF539 cells after 48 hrs by sulforhodamine B assay; assay type: functional; settings: SF-539, 48 h
[30] = system: SNB-19; assay: Growth inhibition of human SNB19 cells after 48 hrs by sulforhodamine B assay; assay type: functional; settings: SNB-19, 48 h
[31] = system: LOX IMVI; assay: Growth inhibition of human LOXIMVI cells after 48 hrs by sulforhodamine B assay; assay type: functional
[32] = system: M14; assay: Growth inhibition of human M14 cells after 48 hrs by sulforhodamine B assay; assay type: functional; settings: M14, 48 h
[33] = system: Malme-3M; assay: Growth inhibition of human MALME-3M cells after 48 hrs by sulforhodamine B assay; assay type: functional
[34] = system: SK-MEL-2; assay: Growth inhibition of human SK-MEL-2 cells after 48 hrs by sulforhodamine B assay; assay type: functional; settings: SK-MEL-2, 48 h
[35] = system: SK-MEL-28; assay: Growth inhibition of human SK-MEL-28 cells after 48 hrs by sulforhodamine B assay; assay type: functional; settings: SK-MEL-28, 48 h
[36] = system: SK-MEL-5; assay: Growth inhibition of human SK-MEL-5 cells after 48 hrs by sulforhodamine B assay; assay type: functional; settings: SK-MEL-5, 48 h
[37] = system: OVCAR-3; assay: Growth inhibition of human OVCAR3 cells after 48 hrs by sulforhodamine B assay; assay type: functional; settings: OVCAR-3, 48 h
[38] = system: OVCAR-5; assay: Growth inhibition of human OVCAR5 cells after 48 hrs by sulforhodamine B assay; assay type: functional; settings: OVCAR-5, 48 h
[39] = system: OVCAR-8; assay: Growth inhibition of human OVCAR8 cells after 48 hrs by sulforhodamine B assay; assay type: functional; settings: OVCAR-8, 48 h
[40] = system: SK-OV-3; assay: Growth inhibition of human SKOV3 cells after 48 hrs by sulforhodamine B assay; assay type: functional; settings: SK-OV-3, 48 h
[41] = system: CAKI-1; assay: Growth inhibition of human Caki1 cells after 48 hrs by sulforhodamine B assay; assay type: functional; settings: CAKI-1, 48 h
[42] = system: SN12C; assay: Growth inhibition of human SN12C cells after 48 hrs by sulforhodamine B assay; assay type: functional
[43] = system: TK-10; assay: Growth inhibition of human TK10 cells after 48 hrs by sulforhodamine B assay; assay type: functional; settings: TK-10, 48 h
[44] = system: UO-31; assay: Growth inhibition of human UO31 cells after 48 hrs by sulforhodamine B assay; assay type: functional; settings: UO-31, 48 h
[45] = Growth inhibition of human Hs 578T cells after 48 hrs by sulforhodamine B assay; assay type: functional
[46] = system: BT-549; assay: Growth inhibition of human BT549 cells after 48 hrs by sulforhodamine B assay; assay type: functional; settings: BT-549, 48 h

## CC(=O)O[C@H]1C(=O)[C@@]2(C)[C@H]([C@H](OC(=O)c3ccccc3)[C@]3(O)C[C@H](OC(=O)[C@H](OC(=O)CCC(=O)NCCCC[C@H](NC(=O)CC[C@H](NC(=O)[C@H](C)NC(=O)/C=C/c4ccc(Cl)cc4)C(N)=O)C(N)=O)[C@H](NC(=O)c4ccccc4)c4ccccc4)C(C)=C1C3(C)C)[C@]1(OC(C)=O)CO[C@@H]1C[C@@H]2O
[1]
  GI50: < 10 nM
[2]
  inhibition in vivo at 10 mg/kg: 37.3%
[3]
  inhibition in vivo at 20 mg/kg: 72.2%
[4]
  inhibition in vivo at 20 mg/kg: 52.9%
[5]
  inhibition in vivo at 30 mg/kg: 79.9%
[6]
  Activity: Non-toxic
[7]
  Activity: Non-toxic
[8]
  inhibition in vivo at 10 mg/kg: 33.1%
[9]
  Activity: Non-toxic
[10]
  Activity: Active
[11]
  Activity: Active
[12]
  Activity: Active
[13]
  Activity: Active
[14]
  Activity: Active
[15]
  Activity: Active
[16]
  GI50: < 10 nM
[17]
  GI50: < 10 nM
[18]
  GI50: < 10 nM
[19]
  GI50: < 10 nM
[20]
  GI50: < 10 nM
[21]
  GI50: < 10 nM
[22]
  GI50: < 10 nM
[23]
  GI50: < 10 nM
[24]
  GI50: < 10 nM
[25]
  GI50: < 10 nM
[26]
  GI50: < 10 nM
[27]
  GI50: < 10 nM
[28]
  GI50: < 10 nM
[29]
  GI50: < 10 nM
[30]
  GI50: < 10 nM
[31]
  GI50: < 10 nM
[32]
  GI50: < 10 nM
[33]
  GI50: < 10 nM
[34]
  GI50: < 10 nM
[35]
  GI50: < 10 nM
[36]
  GI50: < 10 nM
[37]
  GI50: < 10 nM
[38]
  GI50: < 10 nM
[39]
  GI50: < 10 nM
[40]
  GI50: < 10 nM
[41]
  GI50: < 10 nM
[42]
  GI50: < 10 nM
[43]
  GI50: < 10 nM
[44]
  GI50: < 10 nM
[45]
  GI50: < 10 nM
[46]
  GI50: < 10 nM
